{"source": "patent US8058270B2", "about": "“Dihydropteridinones for the treatment of cancer diseases” (Boehringer Ingelheim International GmbH, priority 2004, dated 2011)", "assay_in_all_cases": "Alamar Blue cytotoxicity assay", "type_in_all_cases": "cell-based", "key": {"HT29": {"test_system": "HT29", "conditions": "Homo sapiens, HT-29; HT29 (Colon), 72 h", "from_the_text": "(§1) Alamar Blue™ Cytotoxicity Assays\n(§2) The Alamar Blue™ assay is designed to measure quantitatively the proliferation of cells by incorporating a fluorometric/colorimetric growth indicator based on the detection of metabolic activity.\n(§3) Cell culture: The various human tumor cell lines can be purchased from American Type Culture Collection (ATCC) or the German Collection of Microorganisms and Cell Cultures (DSMZ) and cultivated in 75 to 175 cm^2 tissue culture flasks in the medium indicated by the supplier. The cells are maintained at 37° C. and 5% CO2 in a humidified atmosphere, with an appropriate split ratio. Logarithmically growing cells are used for the assays.\n(§4) Assay conditions: On day one of the experiment 1000-4000 cells (in 100 μl medium) are seeded into each well of a sterile 96-well plate. The number of cells used is dependent on the growth rate and size of the cells. Eight wells on each plate are left free to accommodate for controls (4 wells for medium plus reduced AlamarBlue™, and 4 wells for medium plus oxidized AlamarBlue™). The plates are kept in the incubator overnight. On day two of the experiment serial dilutions of the inhibitor are prepared in medium containing 0.1% DMSO. Typical concentrations used are 10, 3, 1, 0.3, 0.1, 0.03, 0.01, 0.003 and 0.001 μM. 100 μl of the dilution (2× concentrate) is added to each well to yield a final volume of 200 μl per well. As controls plain medium and medium containing 0.1% DMSO are added to the designated wells. All data points are done in quadruplicates. The cells are then incubated for 72 h. After this incubation period 20 μl of AlamarBlue™ is added to each well. As a control, 20 μl of reduced AlamarBlue™ (AlamarBlue™ autoclaved for 30 min) is added to 4 wells without cells, and 20 μl of AlamarBlue™ is added to the remaining 4 wells without cells. After 4-5 h of incubation, the plates are measured in a fluorescence spectrophotometer (excitation 530 nm, emission 590 nm, slits 15, integrate time 0.1).\n(§5) Data analysis: For calculation the mean value from the quadruplicates is taken and the background is subtracted. The 0.1% DMSO value (the mean obtained from 8 wells with cells in medium with 0.1% DMSO but no compound) is taken as 100% control. The data is fitted by iterative calculations using a sigmoidal curve analysis program (Graph Pad Prism version 3.03) with variable Hill slope."}, "DU145": {"test_system": "DU145", "conditions": "Homo sapiens, DU-145; DU145 (Prostate), 72 h", "from_the_text": "as §1, §2, §3, §4, §5"}, "H4": {"test_system": "H4", "conditions": "Homo sapiens; H4 (Brain), 72 h", "from_the_text": "as §1, §2, §3, §4, §5"}, "MDA-MB-435S": {"test_system": "MDA-MB-435S", "conditions": "Homo sapiens; MDA-MB-435S (Breast), 72 h", "from_the_text": "as §1, §2, §3, §4, §5"}, "HL-60": {"test_system": "HL-60", "conditions": "Homo sapiens; HL-60 (Leukemia), 72 h", "from_the_text": "as §1, §2, §3, §4, §5"}, "PC-3": {"test_system": "PC-3", "conditions": "Homo sapiens; PC-3 (Prostate), 72 h", "from_the_text": "as §1, §2, §3, §4, §5"}, "NCI-H460": {"test_system": "NCI-H460", "conditions": "Homo sapiens; NCI-H460 (Lung), 72 h", "from_the_text": "as §1, §2, §3, §4, §5"}, "GRANTA-519": {"test_system": "GRANTA-519", "conditions": "Homo sapiens; GRANTA-519 (Lymphoma), 72 h", "from_the_text": "as §1, §2, §3, §4, §5"}, "HeLa S3": {"test_system": "HeLa S3", "conditions": "Homo sapiens; HeLa S3 (Cervix), 72 h", "from_the_text": "as §1, §2, §3, §4, §5"}, "THP-1": {"test_system": "THP-1", "conditions": "Homo sapiens; THP-1 (Leukemia), 72 h", "from_the_text": "as §1, §2, §3, §4, §5"}, "FaDu": {"test_system": "FaDu", "conditions": "Homo sapiens; FaDu (Head and Neck), 72 h", "from_the_text": "as §1, §2, §3, §4, §5"}, "Raji": {"test_system": "Raji", "conditions": "Homo sapiens; Raji (Lymphoma), 72 h", "from_the_text": "as §1, §2, §3, §4, §5"}, "A549": {"test_system": "A549", "conditions": "Homo sapiens; A549 (Lung), 72 h", "from_the_text": "as §1, §2, §3, §4, §5"}, "MES-SA": {"test_system": "MES-SA", "conditions": "Homo sapiens; MES-SA (Uterus), 72 h", "from_the_text": "as §1, §2, §3, §4, §5"}, "SKOV-3": {"test_system": "SKOV-3", "conditions": "Homo sapiens, SK-OV-3; SKOV-3 (Ovary), 72 h", "from_the_text": "as §1, §2, §3, §4, §5"}, "BRO": {"test_system": "BRO", "conditions": "Homo sapiens; BRO (Melanoma), 72 h", "from_the_text": "as §1, §2, §3, §4, §5"}, "HepG2": {"test_system": "HepG2", "conditions": "Homo sapiens; HepG2 (Liver), 72 h", "from_the_text": "as §1, §2, §3, §4, §5"}, "A431": {"test_system": "A431", "conditions": "Homo sapiens, A-431; A431 (Vulva), 72 h", "from_the_text": "as §1, §2, §3, §4, §5"}, "BxPC-3": {"test_system": "BxPC-3", "conditions": "Homo sapiens; BxPC-3 (Pancreas), 72 h", "from_the_text": "as §1, §2, §3, §4, §5"}, "SK-UT-1B": {"test_system": "SK-UT-1B", "conditions": "Homo sapiens, Skut1B; SK-UT-1B (Uterus), 72 h", "from_the_text": "as §1, §2, §3, §4, §5"}, "MCF7": {"test_system": "MCF7", "conditions": "Homo sapiens; MCF7 (Breast), 72 h", "from_the_text": "as §1, §2, §3, §4, §5"}}}
{"compound": "CC[C@@H]1C(=O)N(C)c2cnc(Nc3ccc(C(=O)NC4CCN(C)CC4)cc3OC)nc2N1C1CCCC1", "note": "[4-[[(7R)-8-cyclopentyl-7-ethyl-5,6,7,8-tetrahydro-5-methyl-6-oxo-2-pteridinyl]amino]-3-methoxy-N-(1-methyl-4-piperidinyl)-benzamide]", "values": [{"measurement": "EC50", "setting": "HT29", "value": 4, "unit": "nM"}, {"measurement": "EC50", "setting": "DU145", "value": 6, "unit": "nM"}, {"measurement": "EC50", "setting": "H4", "value": 22, "unit": "nM"}, {"measurement": "EC50", "setting": "MDA-MB-435S", "value": 17, "unit": "nM"}, {"measurement": "EC50", "setting": "HL-60", "value": 14, "unit": "nM"}, {"measurement": "EC50", "setting": "PC-3", "value": 7, "unit": "nM"}, {"measurement": "EC50", "setting": "NCI-H460", "value": 14, "unit": "nM"}, {"measurement": "EC50", "setting": "GRANTA-519", "value": 5, "unit": "nM"}, {"measurement": "EC50", "setting": "HeLa S3", "value": 12, "unit": "nM"}, {"measurement": "EC50", "setting": "THP-1", "value": 9, "unit": "nM"}, {"measurement": "EC50", "setting": "FaDu", "value": 6, "unit": "nM"}, {"measurement": "EC50", "setting": "Raji", "value": 14, "unit": "nM"}, {"measurement": "EC50", "setting": "A549", "value": 6, "unit": "nM"}, {"measurement": "EC50", "setting": "MES-SA", "value": 10, "unit": "nM"}, {"measurement": "EC50", "setting": "SKOV-3", "value": 4, "unit": "nM"}, {"measurement": "EC50", "setting": "BRO", "value": 4, "unit": "nM"}, {"measurement": "EC50", "setting": "HepG2", "value": 10, "unit": "nM"}, {"measurement": "EC50", "setting": "A431", "value": 2, "unit": "nM"}, {"measurement": "EC50", "setting": "BxPC-3", "value": 25, "unit": "nM"}, {"measurement": "EC50", "setting": "SK-UT-1B", "value": 8, "unit": "nM"}, {"measurement": "EC50", "setting": "MCF7", "value": 9, "unit": "nM"}]}
